This note sets out measurements from US8546338B2, “Self-assembling hydrogels based on dicephalic peptide amphiphiles” (Johnson & Johnson Consumer Companies, Inc., priority 2010, dated 2013).

A short description of data set [1]: Gelation experiments: inversion test for self-supporting hydrogels. The format is physicochemical. The conditions noted are these: for Gelation (self-supporting gel on inversion), DMEM: DPA solution in water mixed 1:1 with DMEM; for Gelation (self-supporting gel on inversion), PBS / Gelation (self-supporting gel on inversion), Water: final concentrations 1, 2 and 4 weight percent tested; for Concentration at which gel forms, Water / Gelation (self-supporting gel on inversion), Water: in water; for Concentration at which gel forms, DMEM: mixed with DMEM. In outline:
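Peptide amphiphile dissolved in ultrapure water at twice final concentration, mixed 1:1 with PBS or DMEM to give 1, 2 or 4 wt%. Gelation scored if the gel held its weight on vial inversion; where none formed, 10 μl of 100 mg/cc CaCl2 was added.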

Data set [2] concerns human kidney derived cells (hKDCs). Description: Cell viability of encapsulated hKDCs in DPA gels (Live/Dead). It is filed as cell-based. The conditions noted are these: 2% DPA gel, after 1, 2 and 3 weeks. As to the method: The viability and proliferation of cells in the gels was evaluated by encapsulating human kidney derived cells (hKDCs) in the gels. hKDC were isolated as described in US Patent Publication Number 2008/0112939. Cells were thawed from storage and cultured for four days in renal epithelial growth media (REGM) media. After four days, the cells were trypsinized and counted by the Guava ViaCount (Millipore, Billerica, Mass.) methodology. Cells were re-suspended in REGM media at a density of 1,000,000 cells/ml. Encapsulation of the cells in the gels was achieved by adding 100 μl cell suspension to 100 μl of a 4 wt % DPA solution in ultrapure in a 24 well plate, resulting in a final DPA concentration of 2%. The gels were incubated for 1 h at 37° C., 5% CO2 after which 1000 μl media was added on top of the gel. Cells were incubated at 37° C., 5% CO2. Every 3-4 days of culture, 500 μl media was replaced. The cells were cultured for 3 weeks and cells were assessed after 1, 2 and 3 weeks with Live/Dead.

Where [3] appears, read: listed as Gly-Phe-Gly-Phe-Gly-Phe-Gly-Gln-Gln-Ser(DPA)_ (SEQ ID NO: 8).

SMILES strings stand for the structures. “And” between values parts separate entries of the source, which are not always exact repeats. Equal values may be shown once.

On to `CCCCCCCCCCCCCCCC(=O)NC(C(=O)NCC(=O)N[C@@H](Cc1ccccc1)C(=O)NCC(=O)N[C@@H](Cc1ccccc1)C(=O)NCC(=O)N[C@@H](Cc1ccccc1)C(=O)NCC(=O)N[C@@H](CCC(N)=O)C(=O)N[C@@H](CCC(N)=O)C(=O)N[C@@H](CO)C(=O)O)C(=O)NCC(=O)N[C@@H](Cc1ccccc1)C(=O)NCC(=O)N[C@@H](Cc1ccccc1)C(=O)NCC(=O)N[C@@H](Cc1ccccc1)C(=O)NCC(=O)N[C@@H](CCC(N)=O)C(=O)N[C@@H](CCC(N)=O)C(=O)N[C@@H](CO)C(=O)O` [Gly-Phe-Gly-Phe-Gly-Phe-Gly-Gln-Gln-Ser], for which, in data set [1] (4 wt % in water), the “Behaviour of gel after disruption by vortexing” value is on record as “reform when left alone” and the “Time to self-supporting gel” value was “approx. 5 minutes”. In addition, in data set [1] (no calcium added), the “Gelation (self-supporting gel on inversion), DMEM” value is “Yes and Yes,”; the “Concentration at which gel forms, DMEM” value is reported as 2%. In addition, in data set [1] (no calcium added, listed as Gly-Phe-Gly-Phe-Gly-Phe-Gly-Gln-Gln-Ser(DPA)_ (SEQ ID NO: 8)), the “Gelation (self-supporting gel on inversion), DMEM” value is “Yes,”. In data set [1], the “Concentration at which gel forms, PBS” value was 4 wt % and 4%; the “Gelation (self-supporting gel on inversion), PBS” value is “Yes and Yes,”; the “Concentration at which gel forms, Water” value was 4 wt % and 4%; the “Gelation (self-supporting gel on inversion), Water” value was “Yes and Yes,”. Moreover, in data set [1] (setting [3]), the “Gelation (self-supporting gel on inversion), PBS” value is “Yes,”; the “Concentration at which gel forms, PBS” value is recorded as 4%; the “Gelation (self-supporting gel on inversion), Water” value was “Yes,”; the “Concentration at which gel forms, Water” value turned out to be 4%. Further, the “Concentration at which gel forms, DMEM” value in data set [1] (no supplemental calcium) is 2 wt %. The “Viability of hKDC cells, Live/Dead” value in data set [2] is “very limited numbers of dead cells were detected”.
